Assay: Organ distribution in normal ICR mice after iv injection of radiolabeled tracer
Assay type: in vivo
Conditions: [125I]-labeled tracer
Experimental: The mice (n=3 for each time point) were sacrificed by cervical dislocation at designated time-points post injection. The organs of interest were removed and weighed, and the radioactivity was counted with an automatic gamma counter. The percentage dose per organ was calculated by a comparison of the tissue counts to suitably diluted aliquots of the injected material. The total activity of the blood was calculated under the assumption that it is 7% of the total body weight. The % dose/g of samples was calculated by comparing the sample counts with the count of the diluted initial dose.

Row | Structure (SMILES) | Biodistribution: Blood (2 min) | Biodistribution: Brain (2 min) | Biodistribution: Heart (2 min) | Biodistribution: Kidney (2 min) | Biodistribution: Liver (2 min) | Biodistribution: Lung (2 min) | Biodistribution: Muscle (2 min) | Biodistribution: Skin (2 min) | Biodistribution: Spleen (2 min) | Biodistribution: Thyroid (2 min) | Biodistribution: Blood (30 min) | Biodistribution: Brain (30 min) | Biodistribution: Heart (30 min) | Biodistribution: Kidney (30 min) | Biodistribution: Liver (30 min) | Biodistribution: Lung (30 min) | Biodistribution: Muscle (30 min) | Biodistribution: Skin (30 min) | Biodistribution: Spleen (30 min) | Biodistribution: Thyroid (30 min) | other results
1 | CN(C)c1ccc(/C=C/c2cnc(OCCO)c(I)c2)cc1 [[^125I]16a, (E)-[5-Iodo-6-(2-hydroxyethoxy)pyridin-3-yl]-2-(4-dimethylaminophenyl)-ethylene] | 2.71 ± 0.07 % dose/g | 5.43 ± 0.85 % dose/g | 10.24 ± 0.45 % dose/g | 14.25 ± 1.98 % dose/g | 19.12 ± 2.68 % dose/g | 9.41 ± 0.56 % dose/g | 0.71 ± 0.46 % dose/g | 0.46 ± 0.13 % dose/g | 4.40 ± 1.89 % dose/g | 4.15 ± 0.43 % dose/g | 2.24 ± 0.38 % dose/g | 3.56 ± 0.32 % dose/g | 1.93 ± 0.27 % dose/g | 4.19 ± 0.45 % dose/g | 12.38 ± 1.29 % dose/g | 3.02 ± 0.38 % dose/g | 1.05 ± 0.20 % dose/g | 1.18 ± 0.26 % dose/g | 1.94 ± 0.19 % dose/g | 11.21 ± 7.88 % dose/g | Biodistribution: Blood (1 hr): 2.18 ± 0.66 % dose/g; Biodistribution: Brain (1 hr): 1.32 ± 0.00 % dose/g; Biodistribution: Heart (1 hr): 1.12 ± 0.02 % dose/g; Biodistribution: Kidney (1 hr): 2.49 ± 0.33 % dose/g; Biodistribution: Liver (1 hr): 6.22 ± 0.96 % dose/g; Biodistribution: Lung (1 hr): 1.98 ± 0.21 % dose/g; Biodistribution: Muscle (1 hr): 0.55 ± 0.03 % dose/g; Biodistribution: Skin (1 hr): 1.16 ± 0.00 % dose/g; Biodistribution: Spleen (1 hr): 1.32 ± 0.10 % dose/g; Biodistribution: Thyroid (1 hr): 59.13 ± 6.26 % dose/g; Biodistribution: Blood (2 hr): 1.01 ± 0.02 % dose/g; Biodistribution: Brain (2 hr): 0.46 ± 0.05 % dose/g; Biodistribution: Heart (2 hr): 0.62 ± 0.12 % dose/g; Biodistribution: Kidney (2 hr): 1.48 ± 0.20 % dose/g; Biodistribution: Liver (2 hr): 4.87 ± 0.46 % dose/g; Biodistribution: Lung (2 hr): 1.00 ± 0.15 % dose/g; Biodistribution: Muscle (2 hr): 0.22 ± 0.04 % dose/g; Biodistribution: Skin (2 hr): 0.40 ± 0.05 % dose/g; Biodistribution: Spleen (2 hr): 0.80 ± 0.11 % dose/g; Biodistribution: Thyroid (2 hr): 24.81 ± 0.62 % dose/g
2 | CNc1ccc(/C=C/c2cnc(OCCO)c(I)c2)cc1 [[^125I]16b, (E)-[5-Iodo-6-(2-hydroxyethoxy)pyridin-3-yl]-2-(4-methylaminophenyl)-ethylene] | 4.14 ± 0.41 % dose/g | 8.04 ± 0.82 % dose/g | 7.16 ± 1.16 % dose/g | 11.51 ± 1.48 % dose/g | 20.84 ± 2.38 % dose/g | 7.43 ± 1.21 % dose/g | 1.15 ± 0.38 % dose/g | 0.95 ± 0.09 % dose/g | 4.08 ± 0.68 % dose/g | 6.31 ± 1.59 % dose/g | 3.08 ± 0.35 % dose/g | 0.88 ± 0.30 % dose/g | 1.50 ± 0.18 % dose/g | 3.73 ± 0.75 % dose/g | 12.57 ± 3.03 % dose/g | 2.67 ± 0.46 % dose/g | 0.91 ± 0.06 % dose/g | 1.86 ± 0.50 % dose/g | 1.34 ± 0.29 % dose/g | 17.23 ± 14.23 % dose/g | Biodistribution: Blood (1 hr): 1.81 ± 0.56 % dose/g; Biodistribution: Brain (1 hr): 0.26 ± 0.03 % dose/g; Biodistribution: Heart (1 hr): 0.88 ± 0.30 % dose/g; Biodistribution: Kidney (1 hr): 2.16 ± 0.08 % dose/g; Biodistribution: Liver (1 hr): 5.62 ± 0.68 % dose/g; Biodistribution: Lung (1 hr): 1.76 ± 0.32 % dose/g; Biodistribution: Muscle (1 hr): 0.42 ± 0.08 % dose/g; Biodistribution: Skin (1 hr): 1.29 ± 0.51 % dose/g; Biodistribution: Spleen (1 hr): 0.87 ± 0.37 % dose/g; Biodistribution: Thyroid (1 hr): 36.69 ± 37.17 % dose/g; Biodistribution: Blood (2 hr): 1.96 ± 0.14 % dose/g; Biodistribution: Brain (2 hr): 0.15 ± 0.02 % dose/g; Biodistribution: Heart (2 hr): 0.76 ± 0.03 % dose/g; Biodistribution: Kidney (2 hr): 1.53 ± 0.20 % dose/g; Biodistribution: Liver (2 hr): 3.41 ± 0.20 % dose/g; Biodistribution: Lung (2 hr): 1.58 ± 0.10 % dose/g; Biodistribution: Muscle (2 hr): 0.38 ± 0.02 % dose/g; Biodistribution: Skin (2 hr): 1.43 ± 0.10 % dose/g; Biodistribution: Spleen (2 hr): 1.08 ± 0.15 % dose/g; Biodistribution: Thyroid (2 hr): 99.88 ± 69.45 % dose/g

— patent US8840866B2, “Styrylpyridine derivatives and their use for binding and imaging amyloid plaques” (The Trustees of the University of Pennsylvania, priority 2006, dated 2014)
